Reference: publication PMC7073524 (Marine Drugs, 2020)
Read-outs that look alike come from different tables or passages of the source.

Tests used:
rat brain α7 receptors = rat brain α7 receptors (Rattus norvegicus, UniProt Q05941); test: biochemical; assay type: binding
human α4β2 nAChR [1] = target: T1, human α4β2 nAChR (Homo sapiens, UniProt P17787+P43681); test: Two-electrode voltage-clamp, human α4β2 nAChRs expressed in Xenopus oocytes; assay type: cell-based; conditions: ± SEM; for EC50: EC50, potency, peak current; for Imax (% ACh): efficacy, peak current normalized to 100 µM ACh
T1 construct: expressed in transfected cells; host or cells: Xenopus laevis oocytes (mRNA injection)
T1 sequence (P43681 29-627 limits assumed): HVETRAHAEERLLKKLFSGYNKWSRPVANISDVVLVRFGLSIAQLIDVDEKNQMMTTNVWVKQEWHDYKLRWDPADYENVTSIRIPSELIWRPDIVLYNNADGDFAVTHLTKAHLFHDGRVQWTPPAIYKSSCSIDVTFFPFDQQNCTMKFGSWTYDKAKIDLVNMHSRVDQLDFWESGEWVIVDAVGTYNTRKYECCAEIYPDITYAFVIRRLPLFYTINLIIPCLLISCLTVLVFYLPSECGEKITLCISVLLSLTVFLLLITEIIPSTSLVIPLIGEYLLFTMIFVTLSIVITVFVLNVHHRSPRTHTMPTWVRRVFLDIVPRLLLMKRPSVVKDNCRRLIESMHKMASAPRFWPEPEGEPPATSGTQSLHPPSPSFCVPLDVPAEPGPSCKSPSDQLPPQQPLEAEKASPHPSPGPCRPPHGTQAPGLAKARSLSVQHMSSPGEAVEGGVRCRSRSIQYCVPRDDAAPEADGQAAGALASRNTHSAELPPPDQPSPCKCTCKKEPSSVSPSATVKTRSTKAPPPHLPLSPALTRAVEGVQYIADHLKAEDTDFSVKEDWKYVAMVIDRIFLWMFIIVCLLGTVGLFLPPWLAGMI
T1 sequence (P17787 26-502): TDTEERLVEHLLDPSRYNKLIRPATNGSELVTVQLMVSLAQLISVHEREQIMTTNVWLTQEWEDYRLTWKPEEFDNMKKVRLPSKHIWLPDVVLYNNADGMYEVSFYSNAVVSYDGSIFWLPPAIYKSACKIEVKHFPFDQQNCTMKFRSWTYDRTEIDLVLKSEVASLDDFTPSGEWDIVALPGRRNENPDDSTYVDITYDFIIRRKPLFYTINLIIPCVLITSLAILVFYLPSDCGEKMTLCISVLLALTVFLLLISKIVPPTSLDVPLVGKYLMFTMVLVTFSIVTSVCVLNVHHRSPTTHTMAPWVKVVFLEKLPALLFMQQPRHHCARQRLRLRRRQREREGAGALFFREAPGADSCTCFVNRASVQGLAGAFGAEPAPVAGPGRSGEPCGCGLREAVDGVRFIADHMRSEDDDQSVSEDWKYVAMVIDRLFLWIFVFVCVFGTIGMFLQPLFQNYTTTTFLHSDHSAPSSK
Excerpt: (§1) It has been especially useful for investigating α7 nAChRs, due to the difficulties that were initially encountered in functional expression of this particular homomeric nAChR in mammalian cells. We measured the peak current response of an oocyte to a given concentration of the compound and expressed its amplitude with respect to the mean response to ACh before and after the compound test concentration.
(§2) Oocytes were harvested from Xenopus laevis frogs obtained from NASCO Scientific Co. (Ft. Atkinson, WI, USA) according to an accepted Kem laboratory Institutional Animal Care Committee (IACUC) approved protocol. We have already described the methods of oocyte injection, perfusion, rapid solution changes, and recording in considerable detail. Oocytes were injected with identical amounts (usually 12 ng) of human α4 and β2 mRNAs for α4β2 nAChR expression, or 20 ng of human α7 mRNAs for α7 nAChR expression. The two-electrode voltage-clamp method was used for recording peak responses (holding Em-50 mV for α4β2 and-60 mV for α7 receptors). […] The oocyte was no longer used if the current response to ACh decreased more than 20% during the experiment. Compounds dissolved in Barth’s saline (pH 7.3) were rapidly administered by an AutoMate perfusion system. Compound applications were separated by a 5 min wash period. We utilized GraphPad Prism software to analyze the data, always assuming a single homogeneous receptor population.

human α7 nAChR = target: T2, human α7 nAChR (Homo sapiens, UniProt P36544); test: Two-electrode voltage-clamp, human α7 nAChRs expressed in Xenopus oocytes; assay type: cell-based; conditions: for EC50: EC50, potency, peak current estimates; for EC50 / Imax (% ACh): ± SEM; for Imax (% ACh): efficacy, peak current normalized to 1 mM ACh; for agonist character at α7 nAChRs: in words
T2 construct: expressed in transfected cells; host or cells: Xenopus laevis oocytes (mRNA injection)
T2 sequence (P36544 23-502): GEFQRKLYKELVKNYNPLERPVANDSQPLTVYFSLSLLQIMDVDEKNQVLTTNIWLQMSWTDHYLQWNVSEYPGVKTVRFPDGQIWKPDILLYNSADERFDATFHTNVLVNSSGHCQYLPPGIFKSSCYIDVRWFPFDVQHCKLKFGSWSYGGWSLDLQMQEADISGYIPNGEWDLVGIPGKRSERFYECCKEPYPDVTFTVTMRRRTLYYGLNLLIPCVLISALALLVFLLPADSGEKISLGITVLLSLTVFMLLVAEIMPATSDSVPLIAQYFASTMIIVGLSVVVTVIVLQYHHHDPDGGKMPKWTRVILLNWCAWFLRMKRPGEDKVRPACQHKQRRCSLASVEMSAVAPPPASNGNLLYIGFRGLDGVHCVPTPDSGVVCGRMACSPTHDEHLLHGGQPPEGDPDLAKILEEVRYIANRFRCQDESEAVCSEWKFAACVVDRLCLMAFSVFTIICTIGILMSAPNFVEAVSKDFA
Excerpt: as §1, §2

rat brain α4β2 nAChRs = rat brain α4β2 nAChRs (Rattus norvegicus, UniProt P09483+P12390); test: [3H]-cytisine displacement from rat brain membranes; assay type: binding; conditions: ± SEM; for Ki: 0.3 nM [3H]-cytisine, 4 °C 4 h; for Hill Slope: [3H]-cytisine displacement
Sequence of rat brain α4β2 nAChRs (P09483 31-630): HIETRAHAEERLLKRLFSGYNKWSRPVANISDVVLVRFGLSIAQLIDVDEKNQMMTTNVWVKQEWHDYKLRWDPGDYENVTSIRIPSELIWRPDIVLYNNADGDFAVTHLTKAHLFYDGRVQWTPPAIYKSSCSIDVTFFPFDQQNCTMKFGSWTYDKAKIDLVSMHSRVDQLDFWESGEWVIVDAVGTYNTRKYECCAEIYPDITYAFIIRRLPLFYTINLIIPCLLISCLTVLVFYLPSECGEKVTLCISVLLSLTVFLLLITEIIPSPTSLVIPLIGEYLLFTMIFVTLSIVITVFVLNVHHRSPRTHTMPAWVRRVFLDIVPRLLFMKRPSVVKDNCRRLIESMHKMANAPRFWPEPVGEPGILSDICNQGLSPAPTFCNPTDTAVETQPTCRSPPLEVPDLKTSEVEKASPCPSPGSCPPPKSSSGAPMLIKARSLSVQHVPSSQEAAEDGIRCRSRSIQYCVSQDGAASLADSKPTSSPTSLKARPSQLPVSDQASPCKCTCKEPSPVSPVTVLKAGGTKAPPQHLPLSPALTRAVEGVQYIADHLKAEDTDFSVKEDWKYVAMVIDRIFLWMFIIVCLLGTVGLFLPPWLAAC
Sequence of rat brain α4β2 nAChRs (P12390 25-500): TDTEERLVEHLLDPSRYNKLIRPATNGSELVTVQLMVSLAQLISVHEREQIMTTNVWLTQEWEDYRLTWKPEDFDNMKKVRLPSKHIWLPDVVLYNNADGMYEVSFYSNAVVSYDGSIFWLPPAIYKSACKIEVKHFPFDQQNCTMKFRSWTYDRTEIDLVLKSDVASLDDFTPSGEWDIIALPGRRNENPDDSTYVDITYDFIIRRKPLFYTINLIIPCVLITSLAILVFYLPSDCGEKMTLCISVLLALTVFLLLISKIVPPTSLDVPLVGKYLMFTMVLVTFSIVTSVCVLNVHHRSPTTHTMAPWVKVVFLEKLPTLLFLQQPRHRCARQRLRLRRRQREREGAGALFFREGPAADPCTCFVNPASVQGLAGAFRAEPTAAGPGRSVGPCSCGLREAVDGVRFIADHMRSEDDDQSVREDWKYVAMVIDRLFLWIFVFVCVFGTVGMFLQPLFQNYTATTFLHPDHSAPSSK
Experimental: [^3H]-Cytisine was purchased from New England Nuclear and iodinated α-bungarotoxin [^125I]-BTX from Amersham. […] [^3H]-Cytisine binding experiments were performed according to [57] with several modifications. Rat brain membranes were incubated with [^3H]-cytisine at 4 °C for 4 h. Then, 200 μg of membrane protein was incubated in a final volume of 500 μL binding saline at 4 °C for 4 h, while binding assays with ^125I-bungarotoxin were incubated at 37 °C for 3 h to assure that equilibrium was reached. […] Reactions were terminated by vacuum filtrations through Whatman GF/C filters (presoaked in PEI) using a Brandel cell harvester. Bound [^3H]-cytisine and ^125I-bungarotoxin were measured with liquid scintillation and gamma counters, respectively. Data were analyzed using GraphPad Prism software (San Diego, CA, USA). The data were fit by nonlinear regression analyses to a sigmoidal dose-response with variable slope. Ki values were calculated using the Cheng-Prusoff equation (K i = IC50/(1 + [RL]/Kd RL)) with a Kd RL value for each radioligand that had been previously determined. IC50 is the median inhibition concentration of the experimental compound and [RL] is the concentration of the radioligand.

human α4β2 nAChR [2] = target: T1, human α4β2 nAChR; conditions: human α4β2 nAChRs; ref Kem et al., in preparation; cited from earlier work

Sequence of rat brain α7 receptors (Q05941 23-502): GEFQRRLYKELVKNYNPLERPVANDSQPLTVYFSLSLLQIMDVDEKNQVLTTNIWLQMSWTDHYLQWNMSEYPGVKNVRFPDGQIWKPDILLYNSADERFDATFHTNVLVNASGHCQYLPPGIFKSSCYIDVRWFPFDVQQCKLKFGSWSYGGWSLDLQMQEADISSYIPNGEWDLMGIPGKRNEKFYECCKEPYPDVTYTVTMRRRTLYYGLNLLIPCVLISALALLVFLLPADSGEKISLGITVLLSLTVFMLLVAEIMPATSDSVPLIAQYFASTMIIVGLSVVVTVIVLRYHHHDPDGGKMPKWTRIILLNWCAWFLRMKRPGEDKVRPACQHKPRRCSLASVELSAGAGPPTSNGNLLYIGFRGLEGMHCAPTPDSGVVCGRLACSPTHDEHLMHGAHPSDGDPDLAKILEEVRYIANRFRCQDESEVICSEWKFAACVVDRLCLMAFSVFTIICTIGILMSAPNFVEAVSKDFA

| SMILES | Ki (rat brain α7 receptors) [nM] | EC50 (human α4β2 nAChR [1]) [nM] | Imax (% ACh) (human α4β2 nAChR [1]) [%ACh] | EC50 (human α7 nAChR) [nM] | Imax (% ACh) (human α7 nAChR) | agonist character at α7 nAChRs (human α7 nAChR) | Ki (rat brain α4β2 nAChRs) [nM] | Hill Slope (rat brain α4β2 nAChRs) | EC50 (human α4β2 nAChR [2]) [nM] | Imax (human α4β2 nAChR [2]) [%] |
| --- | --- | --- | --- | --- | --- | --- | --- | --- | --- | --- |
| C1=CC[C@H](c2cccnc2)NC1 [R-anatabine, anatabine] | 680 ± 120 | – | – | – | – | – | – | – | – | – |
| C1=CC(c2cccnc2)NCC1 (stereo not drawn) [R-isoanatabine, isoanatabine] | – | 310 ± 90 | 102 ± 5.7 | 61300 ± 12000 | 35.4 ± 5.3 | weak partial agonist | 136 ± 11 | 0.94 ± 0.05 | – | – |
| c1cncc([C@@H]2CCCCN2)c1 [S-anabasine, anabasine] | – | – | – | – | – | – | – | – | 4000 | 78 |
| C1=CC[C@@H](c2cccnc2)NC1 [S-anatabine, anatabine] | 236 ± 20 | – | – | – | – | – | – | – | – | – |
| C1=CC(c2cccnc2)NCC1 (stereo not drawn) [S-isoanatabine, isoanatabine] | – | 1010 ± 330 | 78.7 ± 1.9 | 52300 ± 13000 | 81.9 ± 9.1 | highly efficacious agonists | 108 ± 14 | 1.08 ± 0.15 | – | – |
